Data published in patent US10501425B2, “Microbiocidal oxadiazole derivatives” (SYNGENTA PARTICIPATIONS AG, priority 2015, dated 2019).

Key:
Phakopsora pachyrhizi = Phakopsora pachyrhizi / soybean / leaf disc preventative (Asian soybean rust); type: in vivo; details: foliar, 200 ppm in the applied formulation, soybean leaf disks, compared to untreated, read-out: disease control
Experimental: (§1) Leaf disks or leaf segments of various plant species are cut from plants grown in a greenhouse. The cut leaf disks or segments are placed in multiwell plates (24-well format) onto water agar. The leaf disks are sprayed with a test solution before (preventative) or after (curative) inoculation. Compounds to be tested are prepared as DMSO solutions (max. 10 mg/ml) which are diluted to the appropriate concentration with 0.025% Tween20 just before spraying. The inoculated leaf disks or segments are incubated under defined conditions (temperature, relative humidity, light, etc.) according to the respective test system. A single evaluation of disease level is carried out 3 to 14 days after inoculation, depending on the pathosystem. Percent disease control relative to the untreated check leaf disks or segments is then calculated.
Soybean leaf disks are placed on water agar in multiwell plates (24-well format) and sprayed with the formulated test compound diluted in water. One day after application leaf discs are inoculated by spraying a spore suspension on the lower leaf surface. After an incubation period in a climate cabinet of 24-36 hours in darkness at 20° C. and 75% rh leaf disc are kept at 20° C. with 12 h light/day and 75% rh. The activity of a compound is assessed as percent disease control compared to untreated when an appropriate level of disease damage appears in untreated check leaf disks (12 to 14 days after application).
(§2) The following compounds at 200 ppm in the applied formulation give at least 80% disease control in this test when compared to untreated control leaf disks under the same conditions, which show extensive disease development.

[1] = system: Glomerella lacenarium (Colletotrichum lagenarium); test: Glomerella lagenarium liquid culture / cucumber / preventative (anthracnose); type: cell-based; details: Colletotrichum orbiculare; 20 ppm in the applied formulation; liquid culture (PDB), growth inhibition measured photometrically 3 to 4 days after application; compared to untreated; read-out: disease control
Experimental: Mycelia fragments or conidia suspensions of a fungus prepared either freshly from liquid cultures of the fungus or from cryogenic storage, are directly mixed into nutrient broth. DMSO solutions of the test compound (max. 10 mg/ml) are diluted with 0.025% Tween20 by a factor of 50 and 10 μl of this solution is pipetted into a microtiter plate (96-well format). The nutrient broth containing the fungal spores/mycelia fragments is then added to give an end concentration of the tested compound. The test plates are incubated in the dark at 24° C. and 96% relative humidity. The inhibition of fungal growth is determined photometrically after 2 to 7 days, depending on the pathosystem, and percent antifungal activity relative to the untreated check is calculated.
Conidia of the fungus from cryogenic storage are directly mixed into nutrient broth (PDB—potato dextrose broth). After placing a (DMSO) solution of test compound into a microtiter plate (96-well format), the nutrient broth containing the fungal spores is added.
The following compounds at 20 ppm in the applied formulation give at least 80% disease control in this test when compared to untreated control under the same conditions, which show extensive disease development.

[2] = system: Puccinia recondita f. Sp. Tritici; test: Puccinia recondita f. sp. tritici / wheat / leaf disc preventative (brown rust); type: in vivo; details: foliar, 200 ppm in the applied formulation, wheat leaf segments cv. Kanzler, preventative (inoculated 1 day after application), compared to untreated, read-out: disease control
Experimental: as §1, with “calculated. Wheat leaf segments cv. Kanzler were placed on agar in multiwell plates (24-well format) and sprayed with the formulated test compound diluted in water. The leaf disks were inoculated with a spore suspension of the fungus 1 day after application. The inoculated leaf segments were incubated at 19° C. and 75% relative humidity (rh) under a light regime of 12 hours light/12 hours darkness in a climate cabinet and the activity of a compound was assessed as percent disease control compared to untreated when an appropriate level of disease damage appears in untreated check leaf segments (7 to 9 days after application). The following compounds at 200 ppm in the applied formulation give at least 80% disease control in this test when compared to untreated control leaf disks under the same conditions, which show extensive disease development.” for “calculated.”

[3] = system: Puccinia recondita f. Sp. Tritici; test: Puccinia recondita f. sp. tritici / wheat / leaf disc curative (brown rust); type: in vivo; details: foliar, 24 h, 200 ppm in the applied formulation, wheat leaf segments cv. Kanzler, curative (applied 1 day after inoculation), compared to untreated, read-out: disease control
Experimental: as §1
Wheat leaf segments cv. Kanzler are placed on agar in multiwell plates (24-well format). The leaf segments are then inoculated with a spore suspension of the fungus. Plates were stored in darkness at 19° C. and 75% relative humidity. The formulated test compound diluted in water was applied 1 day after inoculation. The leaf segments were incubated at 19° C. and 75% relative humidity under a light regime of 12 hours light/12 hours darkness in a climate cabinet and the activity of a compound was assessed as percent disease control compared to untreated when an appropriate level of disease damage appears in untreated check leaf segments (6 to 8 days after application).
as §2

O=C(NCc1ccc(-c2noc(C(F)(F)F)n2)cc1)OCCCl [Compound 2.17, 2-chloroethyl N-[[4-[5-(trifluoromethyl)-1,2,4-oxadiazol-3-yl]phenyl]methyl]carbamate]
≥ 80%: pest or weed control at 200 ppm (Phakopsora pachyrhizi) | inhibition of growth at 20 ppm [1] | pest or weed control at 200 ppm [2] | pest or weed control at 200 ppm [3]

CCC(C)C(=O)NCc1ccc(-c2noc(C(F)(F)F)n2)cc1 (stereo not drawn) [Compound 1.17, 2-methyl-N-[[4-[5-(trifluoromethyl)-1,2,4-oxadiazol-3-yl]phenyl]methyl]butanamide]
≥ 80%: pest or weed control at 200 ppm (Phakopsora pachyrhizi) | inhibition of growth at 20 ppm [1] | pest or weed control at 200 ppm [2] | pest or weed control at 200 ppm [3]

COCCCC(=O)NCc1ccc(-c2noc(C(F)(F)F)n2)cc1 [Compound 1.21, 4-methoxy-N-[[4-[5-(trifluoromethyl)-1,2,4-oxadiazol-3-yl]phenyl]methyl]butanamide]
≥ 80%: pest or weed control at 200 ppm (Phakopsora pachyrhizi) | inhibition of growth at 20 ppm [1] | pest or weed control at 200 ppm [2] | pest or weed control at 200 ppm [3]

O=C(NCc1ccc(-c2noc(C(F)(F)F)n2)cc1)OCCF [Compound 2.15, 2-fluoroethyl N-[[4-[5-(trifluoromethyl)-1,2,4-oxadiazol-3-yl]phenyl]methyl]carbamate]
≥ 80%: pest or weed control at 200 ppm (Phakopsora pachyrhizi) | inhibition of growth at 20 ppm [1] | pest or weed control at 200 ppm [2] | pest or weed control at 200 ppm [3]

CCC(C)NC(=O)NCc1ccc(-c2noc(C(F)(F)F)n2)cc1 (stereo not drawn) [Compound 3.7, 1-sec-butyl-3-[[4-[5-(trifluoromethyl)-1,2,4-oxadiazol-3-yl]phenyl]methyl]urea]
≥ 80%: pest or weed control at 200 ppm (Phakopsora pachyrhizi) | inhibition of growth at 20 ppm [1] | pest or weed control at 200 ppm [2]

COCC(=O)NC(C)(C)c1ccc(-c2noc(C(F)(F)F)n2)cc1 [Compound 1.95, 2-methoxy-N-[1-methyl-1-[4-[5-(trifluoromethyl)-1,2,4-oxadiazol-3-yl]phenyl]ethyl]acetamide]
≥ 80%: pest or weed control at 200 ppm (Phakopsora pachyrhizi) | inhibition of growth at 20 ppm [1] | pest or weed control at 200 ppm [2] | pest or weed control at 200 ppm [3]

CCC(C)C(=O)NCc1ccc(-c2noc(C(F)(F)F)n2)c(F)c1F (stereo not drawn) [Compound 1.59, N-[[2,3-difluoro-4-[5-(trifluoromethyl)-1,2,4-oxadiazol-3-yl]phenyl]methyl]-2-methyl-butanamide]
≥ 80%: pest or weed control at 200 ppm (Phakopsora pachyrhizi) | inhibition of growth at 20 ppm [1] | pest or weed control at 200 ppm [2]

CCC(C)(CC)C(=O)NCc1ccc(-c2noc(C(F)(F)F)n2)cc1 [Compound 1.20, 2-ethyl-2-methyl-N-[[4-[5-(trifluoromethyl)-1,2,4-oxadiazol-3-yl]phenyl]methyl]butanamide]
≥ 80%: pest or weed control at 200 ppm (Phakopsora pachyrhizi) | inhibition of growth at 20 ppm [1] | pest or weed control at 200 ppm [2] | pest or weed control at 200 ppm [3]

CC(=O)NCc1ccc(-c2noc(C(F)(F)F)n2)c(F)c1F [Compound 1.65, N-[[2,3-difluoro-4-[5-(trifluoromethyl)-1,2,4-oxadiazol-3-yl]phenyl]methyl]acetamide]
≥ 80%: pest or weed control at 200 ppm (Phakopsora pachyrhizi) | inhibition of growth at 20 ppm [1] | pest or weed control at 200 ppm [2] | pest or weed control at 200 ppm [3]

COCCC(=O)NCCc1ccc(-c2noc(C(F)(F)F)n2)cc1 [Compound 1.85, 3-methoxy-N-[2-[4-[5-(trifluoromethyl)-1,2,4-oxadiazol-3-yl]phenyl]ethyl]propanamide]
≥ 80%: pest or weed control at 200 ppm (Phakopsora pachyrhizi) | inhibition of growth at 20 ppm [1] | pest or weed control at 200 ppm [2] | pest or weed control at 200 ppm [3]

CCC(C)C(=O)NCc1ccc(-c2noc(C(F)(F)F)n2)c(F)c1 (stereo not drawn) [Compound 1.39, N-[[3-fluoro-4-[5-(trifluoromethyl)-1,2,4-oxadiazol-3-yl]phenyl]methyl]-2-methyl-butanamide]
≥ 80%: pest or weed control at 200 ppm (Phakopsora pachyrhizi) | inhibition of growth at 20 ppm [1] | pest or weed control at 200 ppm [2] | pest or weed control at 200 ppm [3]

CCN(C)C(=O)NCc1ccc(-c2noc(C(F)(F)F)n2)cc1 [Compound 3.13, 1-ethyl-1-methyl-3-[[4-[5-(trifluoromethyl)-1,2,4-oxadiazol-3-yl]phenyl]methyl]urea]
≥ 80%: pest or weed control at 200 ppm (Phakopsora pachyrhizi) | inhibition of growth at 20 ppm [1] | pest or weed control at 200 ppm [2] | pest or weed control at 200 ppm [3]

CC(C)C(=O)NCc1ccc(-c2noc(C(F)(F)F)n2)cc1F [Compound 1.35, N-[[2-fluoro-4-[5-(trifluoromethyl)-1,2,4-oxadiazol-3-yl]phenyl]methyl]-2-methyl-propanamide]
≥ 80%: pest or weed control at 200 ppm (Phakopsora pachyrhizi) | inhibition of growth at 20 ppm [1] | pest or weed control at 200 ppm [2] | pest or weed control at 200 ppm [3]

CC(C)C(=O)NCc1ccc(-c2noc(C(F)(F)F)n2)c(F)c1F [Compound 1.49, N-[[2,3-difluoro-4-[5-(trifluoromethyl)-1,2,4-oxadiazol-3-yl]phenyl]methyl]-2-methyl-propanamide]
≥ 80%: pest or weed control at 200 ppm (Phakopsora pachyrhizi) | inhibition of growth at 20 ppm [1] | pest or weed control at 200 ppm [2] | pest or weed control at 200 ppm [3]

CCC(C)C(=O)NCCc1ccc(-c2noc(C(F)(F)F)n2)cc1 (stereo not drawn) [Compound 1.87, 2-methyl-N-[2-[4-[5-(trifluoromethyl)-1,2,4-oxadiazol-3-yl]phenyl]ethyl]butanamide]
≥ 80%: pest or weed control at 200 ppm (Phakopsora pachyrhizi) | inhibition of growth at 20 ppm [1] | pest or weed control at 200 ppm [2] | pest or weed control at 200 ppm [3]

CC(=O)NCC(=O)NCCc1ccc(-c2noc(C(F)(F)F)n2)cc1 [Compound 1.82, 2-acetamido-N-[2-[4-[5-(trifluoromethyl)-1,2,4-oxadiazol-3-yl]phenyl]ethyl]acetamide]
≥ 80%: pest or weed control at 200 ppm (Phakopsora pachyrhizi)

CC(CO)(CCl)C(=O)NCCc1ccc(-c2noc(C(F)(F)F)n2)cc1 (stereo not drawn) [Compound 1.88, 2-(chloromethyl)-3-hydroxy-2-methyl-N-[2-[4-[5-(trifluoromethyl)-1,2,4-oxadiazol-3-yl]phenyl]ethyl]propanamide]
≥ 80%: pest or weed control at 200 ppm (Phakopsora pachyrhizi) | inhibition of growth at 20 ppm [1]

O=C(CC(F)(F)F)NCCc1ccc(-c2noc(C(F)(F)F)n2)cc1 [Compound 1.91, 3,3,3-trifluoro-N-[2-[4-[5-(trifluoromethyl)-1,2,4-oxadiazol-3-yl]phenyl]ethyl]propanamide]
≥ 80%: pest or weed control at 200 ppm (Phakopsora pachyrhizi) | inhibition of growth at 20 ppm [1] | pest or weed control at 200 ppm [2]

CC#CCOC(=O)NCc1ccc(-c2noc(C(F)(F)F)n2)cc1 [Compound 2.7, but-2-ynyl N-[[4-[5-(trifluoromethyl)-1,2,4-oxadiazol-3-yl]phenyl]methyl]carbamate]
≥ 80%: pest or weed control at 200 ppm (Phakopsora pachyrhizi) | pest or weed control at 200 ppm [2]
